Measurements taken from patent US11040959B2, “Diprovocims: a new and potent class of TLR agonists” (The Scripps Research Institute, priority 2016, dated 2021).
Where two headings read alike, the source gives them in different places.

Key:
[1] = tested on: mouse macrophages; test: stimulated release of TNF-α from mouse macrophages; assay type: cell-based; details: Macrophage, read-out: EC50 (nM) (mouse)
From the text: EC50 values are derived from dose-response curves for the stimulated release of TNF-α from differentiated THP-1 cells or mouse macrophages are shown beneath each appropriate structural formula of Compounds 8-12. Half maximal effective concentration (EC50) refers to the concentration of a drug, antibody or toxicant that induces a response halfway between the baseline and maximum after a specified exposure time. It is commonly used as a measure of a drug's potency.

[2] = tested on: differentiated human THP-1 cells; test: stimulated release of TNF-α from differentiated human THP-1 cells (ELISA, dose-response); assay type: cell-based; details: for EC50: Homo sapiens, read-out: EC50 (nM) (THP-1)
Procedure: A screening campaign was conducted with nearly 100,000 compounds [(a) Whitby et al., Acc. Chem. Res. 2012, 45:1698-1709; and (b) Boger et al., Angew. Chem. Int. Ed. 2003, 42:4138-4176], using a newly developed functional assay that measured the stimulated release of TNF-α from treated human THP-1 cells partially differentiated along the macrophage line [unpublished results of the inventors and co-workers]. […] The libraries screened in the efforts represent a unique compound collection populated by nontraditional compounds [(a) Whitby et al., Acc. Chem. Res. 2012, 45:1698-1709; and (b) Boger et al., Angew. Chem. Int. Ed. 2003, 42:4138-4176] designed to target protein-protein [(a) Shaginian et al., J. Am. Chem. Soc. 2009, 131:5564-5572; and (b) Whitby et al., J. Am. Chem. Soc. 2011, 133:10184-10194] or protein-DNA interactions [Stover et al., J. Am. Chem. Soc. 2009, 131:3342-3348] as well as the major enzyme classes [Otrubova et al., Bioorg. Med. Chem. Lett. 2014, 24:3807-3813].
Hits were confirmed in an ELISA assay for stimulated TNF-α release from human PMA differentiated THP-1 cells and this assay was used for establishing dose-response curves and measured EC50 values.

[3] = Table 1, TNF-α release from mouse macrophages
[4] = THP-1, Table 1, TNF-α release from human THP-1 cells
[5] = Table 2, TNF-α release from mouse macrophages
[6] = THP-1, Table 2, TNF-α release from human THP-1 cells
[7] = Table 3, TNF-α release from mouse macrophages
[8] = THP-1, Table 3, TNF-α release from human THP-1 cells

| SMILES | EC50 [1, 3] | EC50 [2, 4] | EC50 [1, 5] | EC50 [2, 6] | other results |
| --- | --- | --- | --- | --- | --- |
| O=C(N[C@H]1C[C@@H]1c1ccccc1)[C@@H]1CN(C(=O)c2cccc(C(=O)N3C[C@@H](C(=O)N[C@H]4C[C@@H]4c4ccccc4)[C@H](C(=O)N[C@H]4C[C@@H]4c4ccccc4)C3)c2)C[C@H]1C(=O)N[C@H]1C[C@@H]1c1ccccc1 [Compound 38, (3S,3′S,4S,4′S)-1,1′-Isophthaloyl-bis-(N^3,N^4-bis((1S,2R)-2-phenylcyclopropyl)-pyrrolidine-3,4-dicarboxamide)] | > 5000 nM | > 5000 nM | – | – | – |
| O=C(N[C@H]1C[C@@H]1c1ccccc1)[C@@H]1CN(C(=O)COCC(=O)N2C[C@@H](C(=O)N[C@H]3C[C@@H]3c3ccccc3)[C@H](C(=O)N[C@H]3C[C@@H]3c3ccccc3)C2)C[C@H]1C(=O)N[C@H]1C[C@@H]1c1ccccc1 [Compound 40, (3S,3′S,4S,4′S)-1,1′-(2,2′-Oxybis-(acetyl))bis-(N^3,N^4-bis((1S,2R)-2-phenylcyclopropyl)pyrrolidine-3,4-dicarboxamide)] | > 5000 nM | > 5000 nM | – | – | – |
| O=C(N[C@H]1C[C@@H]1c1ccccc1)[C@@H]1CN(C(=O)[C@H]2CC[C@@H](C(=O)N3C[C@@H](C(=O)N[C@H]4C[C@@H]4c4ccccc4)[C@H](C(=O)N[C@H]4C[C@@H]4c4ccccc4)C3)CC2)C[C@H]1C(=O)N[C@H]1C[C@@H]1c1ccccc1 [Compound 43, (3S,3′S,4S,4′S)-1,1′-(cis-1,4-Cyclohexane-dicarbonyl)bis(N^3,N^4-bis((1S,2R)-2-phenylcyclopropyl)-pyrrolidine-3,4-dicarboxamide)] | > 5000 nM | > 5000 nM | – | – | – |
| O=C(N[C@H]1C[C@@H]1c1ccccc1)[C@@H]1CN(C(=O)c2ccc(C(=O)N3C[C@@H](C(=O)N[C@H]4C[C@@H]4c4ccccc4)[C@H](C(=O)N[C@H]4C[C@@H]4c4ccccc4)C3)c3ccccc23)C[C@H]1C(=O)N[C@H]1C[C@@H]1c1ccccc1 [Compound 45, (3S,3′S,4S,4′S)-1,1′-(Naphthalene-1,4-dicarbonyl)bis(N^3,N^4-bis((1S,2R)-2-phenylcyclopropyl)-pyrrolidine-3,4-dicarboxamide)] | – | – | > 5000 nM | > 5000 nM | – |
| O=C(N[C@H]1C[C@@H]1c1ccccc1)[C@@H]1CN(C(=O)c2cccc3c(C(=O)N4C[C@@H](C(=O)N[C@H]5C[C@@H]5c5ccccc5)[C@H](C(=O)N[C@H]5C[C@@H]5c5ccccc5)C4)cccc23)C[C@H]1C(=O)N[C@H]1C[C@@H]1c1ccccc1 [Compound 47, (3S,3′S,4S,4′S)-1,1′-(Naphthalene-1,5-dicarbonyl)bis(N^3,N^4-bis((1S,2R)-2-phenylcyclopropyl)-pyrrolidine-3,4-dicarboxamide)] | – | – | > 5000 nM | > 5000 nM | – |
| O=C(N[C@H]1C[C@@H]1c1ccccc1)[C@@H]1CN(C(=O)Cc2ccc(CC(=O)N3C[C@@H](C(=O)N[C@H]4C[C@@H]4c4ccccc4)[C@H](C(=O)N[C@H]4C[C@@H]4c4ccccc4)C3)cc2)C[C@H]1C(=O)N[C@H]1C[C@@H]1c1ccccc1 [Compound 48, (3S,3′S,4S,4′S)-1,1′-((1,4-Phenylene)diacetyl)-bis(N^3,N^4-bis((1S,2R)-2-phenylcyclopropyl)-pyrrolidine-3,4-dicarboxamide)] | – | – | > 5000 nM | > 5000 nM | – |
| O=C(N[C@H]1C[C@@H]1c1ccccc1)[C@@H]1CN(C(=O)c2ccc(C(=O)N3C[C@@H](C(=O)N[C@H]4C[C@@H]4c4ccccc4)[C@H](C(=O)N[C@H]4C[C@@H]4c4ccccc4)C3)s2)C[C@H]1C(=O)N[C@H]1C[C@@H]1c1ccccc1 [Compound 49, (3S,3′S,4S,4′S)-1,1′-(Thiophene-2,5-dicarbonyl)-bis(N^3,N^4-bis((1S,2R)-2-phenylcyclopropyl)-pyrrolidine-3,4-dicarboxamide)] | – | – | – | – | EC50 [1, 7]: > 5000 nM; EC50 [2, 8]: 350 nM |
| O=C(N[C@H]1C[C@@H]1c1ccccc1)[C@@H]1CN(C(=O)c2cnc(C(=O)N3C[C@@H](C(=O)N[C@H]4C[C@@H]4c4ccccc4)[C@H](C(=O)N[C@H]4C[C@@H]4c4ccccc4)C3)cn2)C[C@H]1C(=O)N[C@H]1C[C@@H]1c1ccccc1 [Compound 50, (3S,3′S,4S,4′S)-1,1′-(Pyrazine-2,5-dicarbonyl)-bis(N^3,N^4-bis((1S,2R)-2-phenylcyclopropyl)-pyrrolidine-3,4-dicarboxamide)] | – | – | – | – | EC50 [1, 7]: > 5000 nM; EC50 [2, 8]: 130 nM |

Now from value to compound, other results behind:

| EC50 [1, 3] | EC50 [2, 4] | EC50 [1, 5] | EC50 [2, 6] | SMILES | other results |
| --- | --- | --- | --- | --- | --- |
| > 5000 nM | > 5000 nM | – | – | O=C(N[C@H]1C[C@@H]1c1ccccc1)C1CN(C(=O)C#CC(=O)N2C[C@@H](C(=O)N[C@H]3C[C@@H]3c3ccccc3)[C@H](C(=O)N[C@H]3C[C@@H]3c3ccccc3)C2)C[C@H]1C(=O)N[C@H]1C[C@@H]1c1ccccc1 (stereo partly drawn) [Compound 35, (3S,3′S,4S,4′S)-1,1′-(But-2-ynedioyl)-bis(N^3,N^4-bis((1S,2R)-2-phenylcyclopropyl)-pyrrolidine-3,4-dicarboxamide)] | – |
| > 5000 nM | > 5000 nM | – | – | O=C(N[C@H]1C[C@@H]1c1ccccc1)[C@@H]1CN(C(=O)/C=C/C(=O)N2C[C@@H](C(=O)N[C@H]3C[C@@H]3c3ccccc3)[C@H](C(=O)N[C@H]3C[C@@H]3c3ccccc3)C2)C[C@H]1C(=O)N[C@H]1C[C@@H]1c1ccccc1 [Compound 36, (3S,3′S,4S,4′S)-1,1′-Fumaroyl-bis(N^3,N^4-bis((1S,2R)-2-phenylcyclopropyl)pyrrolidine-3,4-dicarboxamide)] | – |
| > 5000 nM | > 5000 nM | – | – | O=C(N[C@H]1C[C@@H]1c1ccccc1)[C@@H]1CN(C(=O)C/C=C/CC(=O)N2C[C@@H](C(=O)N[C@H]3C[C@@H]3c3ccccc3)[C@H](C(=O)N[C@H]3C[C@@H]3c3ccccc3)C2)C[C@H]1C(=O)N[C@H]1C[C@@H]1c1ccccc1 [Compound 37, (3S,3′S,4S,4′S)-1,1′-((E)-Hex-3-enedoyl)bis-(N^3,N^4-bis((1S,2R)-2-phenylcyclopropyl)pyrrolidine-3,4-dicarboxamide)] | – |
| 2300 nM | 90 nM | – | – | O=C(N[C@H]1C[C@@H]1c1ccccc1)[C@@H]1CN(C(=O)c2ccc(-c3ccc(C(=O)N4C[C@@H](C(=O)N[C@H]5C[C@@H]5c5ccccc5)[C@H](C(=O)N[C@H]5C[C@@H]5c5ccccc5)C4)cc3)cc2)C[C@H]1C(=O)N[C@H]1C[C@@H]1c1ccccc1 [Compound 39, (3S,3′S,4S,4′S)-1,1′-(4,4′-Biphenyldicarboxoyl)-bis(N^3,N^4-bis((1S,2R)-2-phenylcyclopropyl)-pyrrolidine-3,4-dicarboxamide)] | – |
| > 5000 nM | > 5000 nM | – | – | O=C(N[C@H]1C[C@@H]1c1ccccc1)[C@@H]1CN(C(=O)[C@@H]2CCC[C@H](C(=O)N3C[C@@H](C(=O)N[C@H]4C[C@@H]4c4ccccc4)[C@H](C(=O)N[C@H]4C[C@@H]4c4ccccc4)C3)C2)C[C@H]1C(=O)N[C@H]1C[C@@H]1c1ccccc1 [Compound 41, (3S,3′S,4S,4′S)-1,1′-(cis-1,3-Cyclohexane-dicarbonyl)bis(N^3,N^4-bis((1S,2R)-2-phenyl-cyclopropyl)pyrrolidine-3,4-dicarboxamide)] | – |
| > 5000 nM | > 5000 nM | – | – | O=C(N[C@H]1C[C@@H]1c1ccccc1)[C@@H]1CN(C(=O)[C@H]2CC[C@H](C(=O)N3C[C@@H](C(=O)N[C@H]4C[C@@H]4c4ccccc4)[C@H](C(=O)N[C@H]4C[C@@H]4c4ccccc4)C3)CC2)C[C@H]1C(=O)N[C@H]1C[C@@H]1c1ccccc1 [Compound 42, (3S,3′S,4S,4′S)-1,1′-(trans-1,4-Cyclohexane-dicarbonyl)bis(N^3,N^4-bis((1S,2R)-2-phenyl-cyclopropyl)pyrrolidine-3,4-dicarboxamide)] | – |
| – | – | 380 nM | 2 nM | O=C(N[C@H]1C[C@@H]1c1ccccc1)[C@@H]1CN(C(=O)c2ccc3cc(C(=O)N4C[C@@H](C(=O)N[C@H]5C[C@@H]5c5ccccc5)[C@H](C(=O)N[C@H]5C[C@@H]5c5ccccc5)C4)ccc3c2)C[C@H]1C(=O)N[C@H]1C[C@@H]1c1ccccc1 [Compound 44, (3S,3′S,4S,4′S)-1,1′-(Naphthalene-2,6-dicarbonyl)bis(N^3,N^4-bis((1S,2R)-2-phenylcyclopropyl)-pyrrolidine-3,4-dicarboxamide)] | fold less active/potent than diprovocim-1 (3) ([2]; human THP-1 cells): > 10 fold |
| – | – | > 5000 nM | > 5000 nM | O=C(N[C@H]1C[C@@H]1c1ccccc1)[C@@H]1CN(C(=O)Cc2cccc(CC(=O)N3C[C@@H](C(=O)N[C@H]4C[C@@H]4c4ccccc4)[C@H](C(=O)N[C@H]4C[C@@H]4c4ccccc4)C3)c2)C[C@H]1C(=O)N[C@H]1C[C@@H]1c1ccccc1 [Compound 46, (3S,3′S,4S,4′S)-1,1′-((1,3-Phenylene)diacetyl)-bis(N^3,N^4-bis((1S,2R)-2-phenylcyclopropyl)-pyrrolidine-3,4-dicarboxamide)] | – |
